Reference: patent US8178506B2, “Oligomeric compounds and compositions for use in modulation of small non-coding RNAs” (Regulus Therapeutics Inc., priority 2003, dated 2012)

Key:
Assay type in all cases: cell-based, human
Conditions in all cases: differentiating adipocytes transfected with oligomeric compound; Table 75
[1] = tested on: HSL; assay: HSL mRNA expression in adipocytes (real-time PCR)
[2] = tested on: aP2; assay: aP2 mRNA expression in adipocytes (real-time PCR)
[3] = tested on: adipocytes; assay: Triglyceride accumulation assay in adipocytes
[4] = tested on: PPARγ; assay: PPARγ mRNA expression in adipocytes (real-time PCR)
[5] = tested on: Glut4; assay: Glut4 mRNA expression in adipocytes (real-time PCR)

## 346691 (GCAGAAGCAUUUCCACACAC; all 2'-MOE, all phosphorothioate, methylation of C and T or U not given here) [compound 346691]
[1]
  HSL mRNA: 69 percentage of untreated control (UTC)
[2]
  aP2 mRNA: 69 percentage of untreated control (UTC)
[3]
  TG (triglyceride accumulation): 56 percentage of untreated control (UTC)
[4]
  PPAR gamma mRNA: 79 percentage of untreated control (UTC)
[5]
  GLUT4 mRNA: 64 percentage of untreated control (UTC)

## 346692 (UAAACGGAACCACUAGUGACUUG; all 2'-MOE, all phosphorothioate, methylation of C and T or U not given here) [compound 346692]
[1]
  HSL mRNA: 18 percentage of untreated control (UTC)
[2]
  aP2 mRNA: 26 percentage of untreated control (UTC)
[3]
  TG (triglyceride accumulation): 35 percentage of untreated control (UTC)
[4]
  PPAR gamma mRNA: 28 percentage of untreated control (UTC)
[5]
  GLUT4 mRNA: 11 percentage of untreated control (UTC)

## 346693 (CCCUCUGGUCAACCAGUCACA; all 2'-MOE, all phosphorothioate, methylation of C and T or U not given here) [compound 346693]
[1]
  HSL mRNA: 66 percentage of untreated control (UTC)
[2]
  aP2 mRNA: 77 percentage of untreated control (UTC)
[3]
  TG (triglyceride accumulation): 69 percentage of untreated control (UTC)
[4]
  PPAR gamma mRNA: 81 percentage of untreated control (UTC)
[5]
  GLUT4 mRNA: 65 percentage of untreated control (UTC)

## 346694 (AACCCAUGGAAUUCAGUUCUCA; all 2'-MOE, all phosphorothioate, methylation of C and T or U not given here) [compound 346694]
[1]
  HSL mRNA: 18 percentage of untreated control (UTC)
[2]
  aP2 mRNA: 41 percentage of untreated control (UTC)
[3]
  TG (triglyceride accumulation): 31 percentage of untreated control (UTC)
[4]
  PPAR gamma mRNA: 32 percentage of untreated control (UTC)
[5]
  GLUT4 mRNA: 5 percentage of untreated control (UTC)

## 346695 (CACUGGUACAAGGGUUGGGAGA; all 2'-MOE, all phosphorothioate, methylation of C and T or U not given here) [compound 346695]
[1]
  HSL mRNA: 73 percentage of untreated control (UTC)
[2]
  aP2 mRNA: 72 percentage of untreated control (UTC)
[3]
  TG (triglyceride accumulation): 69 percentage of untreated control (UTC)
[4]
  PPAR gamma mRNA: 78 percentage of untreated control (UTC)
[5]
  GLUT4 mRNA: 58 percentage of untreated control (UTC)

## 346906 (ACAGGAUUGAGGGGGGGCCCU; all 2'-MOE, all phosphorothioate, methylation of C and T or U not given here) [compound 346906]
[1]
  HSL mRNA: 70 percentage of untreated control (UTC)
[2]
  aP2 mRNA: 77 percentage of untreated control (UTC)
[3]
  TG (triglyceride accumulation): 83 percentage of untreated control (UTC)
[4]
  PPAR gamma mRNA: 80 percentage of untreated control (UTC)
[5]
  GLUT4 mRNA: 70 percentage of untreated control (UTC)

## 346907 (AUGUAUGUGGGACGGUAAACCA; all 2'-MOE, all phosphorothioate, methylation of C and T or U not given here) [compound 346907]
[1]
  HSL mRNA: 36 percentage of untreated control (UTC)
[2]
  aP2 mRNA: 50 percentage of untreated control (UTC)
[3]
  TG (triglyceride accumulation): 47 percentage of untreated control (UTC)
[4]
  PPAR gamma mRNA: 51 percentage of untreated control (UTC)
[5]
  GLUT4 mRNA: 37 percentage of untreated control (UTC)

## 346908 (GCUUUGACAAUACUAUUGCACUG; all 2'-MOE, all phosphorothioate, methylation of C and T or U not given here) [compound 346908]
[1]
  HSL mRNA: 71 percentage of untreated control (UTC)
[2]
  aP2 mRNA: 77 percentage of untreated control (UTC)
[3]
  TG (triglyceride accumulation): 75 percentage of untreated control (UTC)
[4]
  PPAR gamma mRNA: 77 percentage of untreated control (UTC)
[5]
  GLUT4 mRNA: 65 percentage of untreated control (UTC)

## 346909 (UCACCAAAACAUGGAAGCACUUA; all 2'-MOE, all phosphorothioate, methylation of C and T or U not given here) [compound 346909]
[1]
  HSL mRNA: 64 percentage of untreated control (UTC)
[2]
  aP2 mRNA: 68 percentage of untreated control (UTC)
[3]
  TG (triglyceride accumulation): 66 percentage of untreated control (UTC)
[4]
  PPAR gamma mRNA: 77 percentage of untreated control (UTC)
[5]
  GLUT4 mRNA: 64 percentage of untreated control (UTC)

## 346910 (GCAAUCAGCUAACUACACUGCCU; all 2'-MOE, all phosphorothioate, methylation of C and T or U not given here) [compound 346910]
[1]
  HSL mRNA: 69 percentage of untreated control (UTC)
[2]
  aP2 mRNA: 78 percentage of untreated control (UTC)
[3]
  TG (triglyceride accumulation): 80 percentage of untreated control (UTC)
[4]
  PPAR gamma mRNA: 83 percentage of untreated control (UTC)
[5]
  GLUT4 mRNA: 63 percentage of untreated control (UTC)

## 346913 (AGAAAGGCAGCAGGUCGUAUAG; all 2'-MOE, all phosphorothioate, methylation of C and T or U not given here) [compound 346913]
[1]
  HSL mRNA: 58 percentage of untreated control (UTC)
[2]
  aP2 mRNA: 66 percentage of untreated control (UTC)
[3]
  TG (triglyceride accumulation): 63 percentage of untreated control (UTC)
[4]
  PPAR gamma mRNA: 59 percentage of untreated control (UTC)
[5]
  GLUT4 mRNA: 40 percentage of untreated control (UTC)

## 346914 (AUCUGCACUGUCAGCACUUUA; all 2'-MOE, all phosphorothioate, methylation of C and T or U not given here) [compound 346914]
[1]
  HSL mRNA: 27 percentage of untreated control (UTC)
[2]
  aP2 mRNA: 48 percentage of untreated control (UTC)
[3]
  TG (triglyceride accumulation): 41 percentage of untreated control (UTC)
[4]
  PPAR gamma mRNA: 41 percentage of untreated control (UTC)
[5]
  GLUT4 mRNA: 16 percentage of untreated control (UTC)

## 346915 (ACAUCGUUACCAGACAGUGUUA; all 2'-MOE, all phosphorothioate, methylation of C and T or U not given here) [compound 346915]
[1]
  HSL mRNA: 67 percentage of untreated control (UTC)
[2]
  aP2 mRNA: 83 percentage of untreated control (UTC)
[3]
  TG (triglyceride accumulation): 73 percentage of untreated control (UTC)
[4]
  PPAR gamma mRNA: 90 percentage of untreated control (UTC)
[5]
  GLUT4 mRNA: 75 percentage of untreated control (UTC)

## 346917 (CAGCUAUGCCAGCAUCUUGCCU; all 2'-MOE, all phosphorothioate, methylation of C and T or U not given here) [compound 346917]
[1]
  HSL mRNA: 27 percentage of untreated control (UTC)
[2]
  aP2 mRNA: 33 percentage of untreated control (UTC)
[3]
  TG (triglyceride accumulation): 39 percentage of untreated control (UTC)
[4]
  PPAR gamma mRNA: 31 percentage of untreated control (UTC)
[5]
  GLUT4 mRNA: 20 percentage of untreated control (UTC)

## 346919 (CUACCUGCACGAACAGCACUUUG; all 2'-MOE, all phosphorothioate, methylation of C and T or U not given here) [compound 346919]
[1]
  HSL mRNA: 45 percentage of untreated control (UTC)
[2]
  aP2 mRNA: 64 percentage of untreated control (UTC)
[3]
  TG (triglyceride accumulation): 44 percentage of untreated control (UTC)
[4]
  PPAR gamma mRNA: 65 percentage of untreated control (UTC)
[5]
  GLUT4 mRNA: 50 percentage of untreated control (UTC)

## 346920 (AGCAAAAAUGUGCUAGUGCCAAA; all 2'-MOE, all phosphorothioate, methylation of C and T or U not given here) [compound 346920]
[1]
  HSL mRNA: 53 percentage of untreated control (UTC)
[2]
  aP2 mRNA: 70 percentage of untreated control (UTC)
[3]
  TG (triglyceride accumulation): 63 percentage of untreated control (UTC)
[4]
  PPAR gamma mRNA: 70 percentage of untreated control (UTC)
[5]
  GLUT4 mRNA: 61 percentage of untreated control (UTC)

## 346921 (AACAACCAGCUAAGACACUGCCA; all 2'-MOE, all phosphorothioate, methylation of C and T or U not given here) [compound 346921]
[1]
  HSL mRNA: 49 percentage of untreated control (UTC)
[2]
  aP2 mRNA: 69 percentage of untreated control (UTC)
[3]
  TG (triglyceride accumulation): 52 percentage of untreated control (UTC)
[4]
  PPAR gamma mRNA: 62 percentage of untreated control (UTC)
[5]
  GLUT4 mRNA: 51 percentage of untreated control (UTC)

## 348116 (UUCGCCCUCUCAACCCAGCUUUU; anti-miR; all 2'-MOE, all phosphorothioate, methylation of C and T or U not given here) [compound 348116]
[1]
  HSL mRNA: 58 percentage of untreated control (UTC)
[2]
  aP2 mRNA: 79 percentage of untreated control (UTC)
[3]
  TG (triglyceride accumulation): 43 percentage of untreated control (UTC)
[4]
  PPAR gamma mRNA: 76 percentage of untreated control (UTC)
[5]
  GLUT4 mRNA: 48 percentage of untreated control (UTC)

## 348117 (GAACCCACAAUCCCUGGCUUA; all 2'-MOE, all phosphorothioate, methylation of C and T or U not given here) [compound 348117]
[1]
  HSL mRNA: 55 percentage of untreated control (UTC)
[2]
  aP2 mRNA: 70 percentage of untreated control (UTC)
[3]
  TG (triglyceride accumulation): 66 percentage of untreated control (UTC)
[4]
  PPAR gamma mRNA: 65 percentage of untreated control (UTC)
[5]
  GLUT4 mRNA: 73 percentage of untreated control (UTC)

## 348119 (UCCAUAAAGUAGGAAACACUACA; anti-miR; all 2'-MOE, all phosphorothioate, methylation of C and T or U not given here) [compound 348119]
[1]
  HSL mRNA: 76 percentage of untreated control (UTC)
[2]
  aP2 mRNA: 81 percentage of untreated control (UTC)
[3]
  TG (triglyceride accumulation): 91 percentage of untreated control (UTC)
[4]
  PPAR gamma mRNA: 90 percentage of untreated control (UTC)
[5]
  GLUT4 mRNA: 86 percentage of untreated control (UTC)
